Assay results as given in ChEMBL document CHEMBL5291721, “A preclinical secondary pharmacology resource illuminates target-adverse drug reaction associations of marketed drugs” (Nat Commun, 2023).

What was measured:
[1] = target: Adenosine receptor A2a (Homo sapiens, UniProt P29274)
[2] = target: T1, 5-hydroxytryptamine receptor 1A (Homo sapiens, UniProt P08908); format: functional, cell-based
T1 sequence (P08908 whole entry): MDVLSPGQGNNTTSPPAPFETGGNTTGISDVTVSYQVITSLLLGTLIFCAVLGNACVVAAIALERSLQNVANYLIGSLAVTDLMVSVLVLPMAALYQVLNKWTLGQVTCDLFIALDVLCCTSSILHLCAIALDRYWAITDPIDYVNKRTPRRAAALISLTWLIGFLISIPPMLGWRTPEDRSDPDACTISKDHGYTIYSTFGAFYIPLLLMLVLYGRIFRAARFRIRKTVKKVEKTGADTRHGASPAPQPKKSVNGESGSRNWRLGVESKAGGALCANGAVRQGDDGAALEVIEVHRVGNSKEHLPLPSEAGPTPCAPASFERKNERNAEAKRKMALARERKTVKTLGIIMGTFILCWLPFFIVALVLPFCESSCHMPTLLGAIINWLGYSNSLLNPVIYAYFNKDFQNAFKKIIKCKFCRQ

[3] = target: T2, Alpha-2A adrenergic receptor (Homo sapiens, UniProt P08913); format: functional, cell-based
T2 sequence (P08913 whole entry): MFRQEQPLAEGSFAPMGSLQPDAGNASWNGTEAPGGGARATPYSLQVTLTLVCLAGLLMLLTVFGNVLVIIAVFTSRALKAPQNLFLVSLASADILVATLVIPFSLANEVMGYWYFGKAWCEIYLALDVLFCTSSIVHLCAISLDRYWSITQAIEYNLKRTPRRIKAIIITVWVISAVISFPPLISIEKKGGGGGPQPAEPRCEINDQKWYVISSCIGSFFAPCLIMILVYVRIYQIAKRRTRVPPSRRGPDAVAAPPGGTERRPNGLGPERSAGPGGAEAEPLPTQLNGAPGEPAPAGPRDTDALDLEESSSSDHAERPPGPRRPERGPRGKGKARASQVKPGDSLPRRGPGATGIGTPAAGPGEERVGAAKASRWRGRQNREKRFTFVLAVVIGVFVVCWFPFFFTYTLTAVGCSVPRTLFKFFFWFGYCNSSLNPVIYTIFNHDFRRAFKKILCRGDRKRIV

[4] = target: T3, 5-hydroxytryptamine receptor 2C (Homo sapiens, UniProt P28335)
T3 sequence (P28335 whole entry): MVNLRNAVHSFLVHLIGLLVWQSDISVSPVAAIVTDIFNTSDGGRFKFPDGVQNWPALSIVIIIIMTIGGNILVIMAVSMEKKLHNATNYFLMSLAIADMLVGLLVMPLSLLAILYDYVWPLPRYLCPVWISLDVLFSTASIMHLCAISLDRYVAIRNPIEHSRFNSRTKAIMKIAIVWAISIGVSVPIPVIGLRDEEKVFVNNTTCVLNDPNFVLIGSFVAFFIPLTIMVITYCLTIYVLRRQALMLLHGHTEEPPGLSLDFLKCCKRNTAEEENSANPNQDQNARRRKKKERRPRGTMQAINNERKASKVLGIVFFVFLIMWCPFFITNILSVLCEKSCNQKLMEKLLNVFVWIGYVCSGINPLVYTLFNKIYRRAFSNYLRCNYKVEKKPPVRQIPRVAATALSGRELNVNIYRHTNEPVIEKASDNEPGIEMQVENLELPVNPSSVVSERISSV

[5] = target: Growth hormone secretagogue receptor type 1 (Homo sapiens, UniProt Q92847)
Growth hormone secretagogue receptor type 1, sequence (Q92847 whole entry): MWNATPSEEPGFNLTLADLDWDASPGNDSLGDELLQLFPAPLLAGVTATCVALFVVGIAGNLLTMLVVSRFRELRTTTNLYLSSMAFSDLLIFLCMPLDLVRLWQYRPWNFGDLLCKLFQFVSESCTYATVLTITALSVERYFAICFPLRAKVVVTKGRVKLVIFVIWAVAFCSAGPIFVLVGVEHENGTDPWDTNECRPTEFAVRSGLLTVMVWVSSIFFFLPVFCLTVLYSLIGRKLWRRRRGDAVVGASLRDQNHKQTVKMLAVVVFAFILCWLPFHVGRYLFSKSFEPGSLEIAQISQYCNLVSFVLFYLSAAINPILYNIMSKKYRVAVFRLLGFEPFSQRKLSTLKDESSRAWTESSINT

[6] = target: 5-hydroxytryptamine receptor 2B (Homo sapiens, UniProt P41595); format: functional, cell-based
5-hydroxytryptamine receptor 2B, sequence (P41595 whole entry): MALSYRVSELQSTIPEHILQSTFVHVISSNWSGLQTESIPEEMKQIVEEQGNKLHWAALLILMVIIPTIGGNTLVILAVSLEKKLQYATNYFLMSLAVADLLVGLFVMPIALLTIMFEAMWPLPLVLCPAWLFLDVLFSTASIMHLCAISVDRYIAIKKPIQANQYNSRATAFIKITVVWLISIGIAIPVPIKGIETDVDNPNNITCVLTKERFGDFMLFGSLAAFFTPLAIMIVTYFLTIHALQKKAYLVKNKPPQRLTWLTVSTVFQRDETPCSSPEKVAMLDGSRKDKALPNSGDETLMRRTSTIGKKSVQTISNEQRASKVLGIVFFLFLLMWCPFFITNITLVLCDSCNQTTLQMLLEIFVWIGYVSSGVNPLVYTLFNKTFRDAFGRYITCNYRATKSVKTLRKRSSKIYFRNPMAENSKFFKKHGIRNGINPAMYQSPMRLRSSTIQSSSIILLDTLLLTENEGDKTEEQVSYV

[7] = target: 3',5'-cyclic-AMP phosphodiesterase 4D (Homo sapiens, UniProt Q08499); format: functional
3',5'-cyclic-AMP phosphodiesterase 4D, sequence (Q08499 whole entry): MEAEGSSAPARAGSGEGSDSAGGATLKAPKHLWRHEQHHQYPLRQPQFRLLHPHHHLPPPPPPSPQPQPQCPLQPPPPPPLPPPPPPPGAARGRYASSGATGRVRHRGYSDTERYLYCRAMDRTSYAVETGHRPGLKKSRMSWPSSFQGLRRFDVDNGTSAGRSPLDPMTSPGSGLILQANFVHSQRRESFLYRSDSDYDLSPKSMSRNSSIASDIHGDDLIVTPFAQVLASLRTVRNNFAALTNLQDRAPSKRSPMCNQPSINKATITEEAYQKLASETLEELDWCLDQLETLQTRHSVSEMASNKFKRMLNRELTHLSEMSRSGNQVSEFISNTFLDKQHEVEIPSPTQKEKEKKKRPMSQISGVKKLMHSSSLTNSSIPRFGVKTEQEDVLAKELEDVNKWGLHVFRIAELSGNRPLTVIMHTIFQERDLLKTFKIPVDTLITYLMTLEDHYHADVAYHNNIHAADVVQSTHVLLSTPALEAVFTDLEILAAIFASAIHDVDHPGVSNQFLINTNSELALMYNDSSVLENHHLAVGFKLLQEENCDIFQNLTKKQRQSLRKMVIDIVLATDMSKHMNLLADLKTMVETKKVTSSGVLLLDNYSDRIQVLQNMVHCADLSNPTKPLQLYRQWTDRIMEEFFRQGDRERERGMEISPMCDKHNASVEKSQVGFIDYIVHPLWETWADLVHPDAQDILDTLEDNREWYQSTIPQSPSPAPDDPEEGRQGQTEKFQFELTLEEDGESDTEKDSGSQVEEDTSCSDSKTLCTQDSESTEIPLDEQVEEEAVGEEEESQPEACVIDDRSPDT

[8] = target: T4, Equilibrative nucleoside transporter 1 (Homo sapiens, UniProt Q99808)
T4 sequence (Q99808 whole entry): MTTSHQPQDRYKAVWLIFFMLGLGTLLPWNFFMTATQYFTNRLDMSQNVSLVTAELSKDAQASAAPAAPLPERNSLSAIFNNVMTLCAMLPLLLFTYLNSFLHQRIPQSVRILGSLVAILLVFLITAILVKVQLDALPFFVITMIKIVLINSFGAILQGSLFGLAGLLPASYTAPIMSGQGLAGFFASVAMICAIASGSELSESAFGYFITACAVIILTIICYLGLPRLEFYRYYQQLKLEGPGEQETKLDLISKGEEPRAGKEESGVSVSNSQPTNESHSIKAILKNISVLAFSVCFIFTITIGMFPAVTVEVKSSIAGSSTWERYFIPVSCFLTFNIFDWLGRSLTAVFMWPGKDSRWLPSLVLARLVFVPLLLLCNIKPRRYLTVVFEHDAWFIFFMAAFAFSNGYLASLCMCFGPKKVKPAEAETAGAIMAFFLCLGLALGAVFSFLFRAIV

[9] = target: T5, Adenosine receptor A3 (Homo sapiens, UniProt P0DMS8)
T5 sequence (P0DMS8 whole entry): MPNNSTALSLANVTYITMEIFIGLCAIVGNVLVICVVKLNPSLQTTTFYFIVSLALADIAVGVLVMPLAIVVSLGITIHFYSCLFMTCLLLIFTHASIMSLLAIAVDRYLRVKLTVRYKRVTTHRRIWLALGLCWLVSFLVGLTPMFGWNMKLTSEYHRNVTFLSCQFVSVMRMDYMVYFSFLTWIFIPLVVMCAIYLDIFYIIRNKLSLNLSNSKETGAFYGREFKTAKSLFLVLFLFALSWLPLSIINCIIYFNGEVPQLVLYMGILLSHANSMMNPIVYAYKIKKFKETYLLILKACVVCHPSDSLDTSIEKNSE

[10] = target: Delta-type opioid receptor (Homo sapiens, UniProt P41143)
Delta-type opioid receptor, sequence (P41143 whole entry): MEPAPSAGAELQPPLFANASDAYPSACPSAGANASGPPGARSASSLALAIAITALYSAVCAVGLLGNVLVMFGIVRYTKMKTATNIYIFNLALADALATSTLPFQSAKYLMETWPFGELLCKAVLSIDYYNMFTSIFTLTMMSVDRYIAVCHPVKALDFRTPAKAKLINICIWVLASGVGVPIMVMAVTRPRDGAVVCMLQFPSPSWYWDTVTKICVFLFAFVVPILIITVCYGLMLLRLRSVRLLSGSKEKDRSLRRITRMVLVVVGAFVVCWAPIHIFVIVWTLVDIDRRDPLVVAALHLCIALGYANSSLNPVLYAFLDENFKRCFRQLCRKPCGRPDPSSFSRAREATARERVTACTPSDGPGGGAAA

[11] = target: Beta-1 adrenergic receptor (Homo sapiens, UniProt P08588); format: functional
Beta-1 adrenergic receptor, sequence (P08588 whole entry): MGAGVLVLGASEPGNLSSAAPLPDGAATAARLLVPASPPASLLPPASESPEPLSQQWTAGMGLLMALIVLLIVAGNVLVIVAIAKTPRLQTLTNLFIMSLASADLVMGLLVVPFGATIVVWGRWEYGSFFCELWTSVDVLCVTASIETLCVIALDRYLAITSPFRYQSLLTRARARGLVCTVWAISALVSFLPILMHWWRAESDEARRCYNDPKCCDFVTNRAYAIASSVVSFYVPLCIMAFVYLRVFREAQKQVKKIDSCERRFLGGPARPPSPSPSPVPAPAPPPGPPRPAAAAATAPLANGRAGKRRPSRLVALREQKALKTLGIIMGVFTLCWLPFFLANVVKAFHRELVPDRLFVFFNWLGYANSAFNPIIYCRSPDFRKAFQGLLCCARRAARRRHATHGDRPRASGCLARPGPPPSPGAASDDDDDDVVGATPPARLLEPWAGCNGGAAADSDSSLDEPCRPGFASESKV
Further: assay procedure not described here.

Adenosine receptor A2a, sequence (P29274 whole entry): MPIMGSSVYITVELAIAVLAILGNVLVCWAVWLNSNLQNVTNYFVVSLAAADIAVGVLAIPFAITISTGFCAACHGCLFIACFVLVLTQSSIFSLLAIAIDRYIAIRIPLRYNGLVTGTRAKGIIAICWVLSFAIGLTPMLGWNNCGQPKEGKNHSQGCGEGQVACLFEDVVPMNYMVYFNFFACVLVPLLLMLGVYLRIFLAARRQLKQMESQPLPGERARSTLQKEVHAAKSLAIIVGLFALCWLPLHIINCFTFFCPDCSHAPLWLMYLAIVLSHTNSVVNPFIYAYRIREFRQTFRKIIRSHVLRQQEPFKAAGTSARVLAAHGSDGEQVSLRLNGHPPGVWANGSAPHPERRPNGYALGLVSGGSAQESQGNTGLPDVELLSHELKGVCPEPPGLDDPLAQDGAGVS

| Compound | AC50 [1] [µM] | AC50 [2] [µM] | AC50 [3] [µM] | AC50 [4] [µM] | AC50 [5] [µM] | AC50 [6] [µM] | AC50 [7] [µM] | AC50 [8] [µM] | AC50 [9] [µM] | AC50 [10] [µM] | AC50 [11] [µM] |
| --- | --- | --- | --- | --- | --- | --- | --- | --- | --- | --- | --- |
| CCC(C)n1ncn(-c2ccc(N3CCN(c4ccc(OCC5COC(Cn6cncn6)(c6ccc(Cl)cc6Cl)O5)cc4)CC3)cc2)c1=O (configuration not stated) [ITRACONAZOLE] | > 30 | > 30 | > 30 | > 30 | > 30 | > 30 | 18 | > 30 | > 30 | > 30 | > 30 |
| Cc1ccc(-c2cc(C(F)(F)F)nn2-c2ccc(S(N)(=O)=O)cc2)cc1 [CELECOXIB] | > 10 | > 10 | > 10 | > 30 | > 10 | > 10 | 20 | 24.4 | 9.14 | > 30 | > 10 |
| CS(=O)(=O)c1ccc(C2=C(c3ccccc3)C(=O)OC2)cc1 [ROFECOXIB] | > 30 | > 30 | > 30 | > 30 | > 30 | > 30 | > 30 | > 30 | > 30 | > 10 | > 10 |
| O=P1(NCCCl)OCCCN1CCCl (configuration not stated) [IFOSFAMIDE] | > 30 | > 30 | > 30 | > 30 | > 30 | > 30 | > 30 | > 30 | > 30 | > 30 | > 30 |
| O=C(O[C@H]1C[C@H]2CC[C@@H](C1)[N+]21CCCC1)C(O)(c1ccccc1)c1ccccc1 [TROSPIUM] | > 30 | > 30 | > 30 | > 30 | > 30 | > 30 | > 30 | > 30 | > 30 | > 30 | > 30 |
| CNC1Cc2ccccc2N(C)c2ccccc21 (configuration not stated) [METAPRAMINE] | > 30 | > 10 | > 30 | 29 | > 30 | 0.95 | > 30 | > 30 | > 30 | > 30 | > 30 |
| C[C@]12CCC(=O)C=C1CC[C@@H]1[C@@H]2[C@@H](O)C[C@@]2(C)[C@H]1CC[C@]2(O)C(=O)CO [HYDROCORTISONE] | > 30 | > 10 | > 10 | > 30 | > 30 | > 10 | > 30 | > 30 | > 30 | > 30 | > 10 |
| CNC(=O)c1ccccc1Sc1ccc2c(/C=C/c3ccccn3)n[nH]c2c1 [AXITINIB] | > 30 | > 30 | > 30 | > 30 | > 30 | > 30 | > 30 | > 30 | 4.52 | > 30 | > 30 |
| Cn1nnc2c(C(N)=O)ncn2c1=O [TEMOZOLOMIDE] | > 30 | > 30 | > 30 | > 30 | > 30 | > 30 | > 30 | > 30 | > 30 | > 30 | > 30 |
| CN(C)/N=N/c1[nH]cnc1C(N)=O [DACARBAZINE] | > 10 | > 10 | > 10 | > 30 | > 10 | > 10 | > 30 | > 10 | > 10 | > 30 | > 10 |
| CC[C@H]1OC(=O)[C@H](C)[C@@H](O[C@H]2C[C@@](C)(OC)[C@@H](O)[C@H](C)O2)[C@H](C)[C@@H](O[C@@H]2O[C@H](C)C[C@H](N(C)C)[C@H]2O)[C@](C)(O)C[C@@H](C)CN(C)[C@H](C)[C@@H](O)[C@]1(C)O [AZITHROMYCIN] | > 30 | > 10 | > 10 | > 30 | > 30 | > 10 | > 30 | > 30 | > 30 | > 10 | > 10 |
| CC[C@H]1[C@@H](O)[C@@H]2[C@H](CC[C@]3(C)[C@@H]([C@H](C)CCC(=O)O)CC[C@@H]23)[C@@]2(C)CC[C@@H](O)C[C@@H]12 [OBETICHOLIC ACID] | > 30 | > 30 | > 30 | > 30 | > 30 | > 30 | > 30 | > 30 | 23 | > 30 | > 30 |
| CCCCN1C[C@H](O)[C@@H](O)[C@H](O)[C@H]1CO | > 30 | > 30 | > 30 | > 30 | > 30 | > 30 | > 30 | > 30 | > 30 | > 30 | > 30 |
| NCC(CC(=O)O)c1ccc(Cl)cc1 (configuration not stated) [BACLOFEN] | > 30 | > 30 | > 30 | > 30 | > 30 | > 30 | > 30 | > 30 | 4.2 | > 30 | > 30 |
| c1ccc([C@H]2CN3CCSC3=N2)cc1 [LEVAMISOLE] | > 30 | > 30 | > 30 | > 30 | > 30 | > 30 | > 30 | > 30 | > 30 | > 30 | > 30 |
| Clc1ccc(C(c2ccccc2Cl)C(Cl)Cl)cc1 (configuration not stated) [MITOTANE] | > 10 | > 10 | > 10 | > 30 | > 10 | > 10 | > 30 | > 10 | > 10 | > 30 | > 10 |
| COc1ccc(CC(C)(C)NC[C@H](O)c2cc(O)cc3c2OCC(=O)N3)cc1 [OLODATEROL] | > 30 | > 30 | > 30 | > 30 | > 30 | > 30 | 21 | > 30 | > 30 | > 30 | 0.58 |
